Read-outs that look alike come from different tables or passages of the source.
Tests used:
[1] = tested on: Passive cutaneous anaphylaxis (P.C.A.); test: Inhibition of passive cutaneous anaphylaxis (P.C.A.); type: in vivo, rat (Sprague-Dawley); conditions: Rattus norvegicus, 1 h; rats, 2 × 10^-5 mol/kg p.o., one hour before ovalbumin challenge
Description: (§1) 1. Determination of the inhibition of passive cutaneous anaphylaxis (P.C.A.) and of the anaphylactoid cutaneous reaction induced by histamine.
The P.C.A. reaction was carried out according to the methods described by Goose et al. (J.N. Immunology 16 (1969), 749) and by Martin et al (Arch. Pharmacol. 316 (1981), 186}.
The IgE-rich ovalbumin antiserum used in the test was obtained from immunized Brown-Norway rats. For immunization, the rats were given an i.p. injection of a mixture of 100 μg of ovalbumin with a Bordetella pertussis suspension (Vaxicoq®, Manufacturer: Institut Merieux, containing 5×10^9 organisms and 1.25 mg of Al(OH)3). After 20 days, the animals received a further i.p. injection of a solution of 10 μg of ovaIbumin in 0.5 ml of physiological saline solution for reimmunisation. After a further four days, the animals were bled, and the blood was centrifuged The antiserum obtained in this way was stored at -20° C. until use.
(§2) The determination of the inhibition of passive cutaneous anaphylaxis and the anaphylactoid cutaneous reaction induced by histamine was carried out as follows:
Sprague-Dawley rats having a body weight of 150-180 g were injected intradermally in one flank with 50 μl of a 1:75 dilution of the IgE-rich ovalbumin antiserum in physiological sodium chloride solution for passive sensitization to ovalbumin.
24 hours after sensitization a solution of 8.25 mg/kg of ovalbumin and 26.4 mg/kg of a blue dye (Evans' Blue) was administered i.v. to the rats according to Martin et al. to induce passive cutaneous anaphylaxis. The ovalbumin challenge caused a local anaphylactic reaction at the site at which the antiserum had been injected.
(§3) On the test days, the test substances were dissolved in distilled water which contained 1% by volume of dimethylformamide and 1% by volume of Tween®20 (polyoxyethylene(20) sorbitan monolaurate). One hour before the challenging ovalbumin administration, each animal received 2×10^-5 mol/kg of test substance administered orally in 0.5 ml of solution. A control group received only the solvent for comparison.
(§4) The oedematous anaphylactic (P.C.A.) and anaphylactoid (histamine-induced) reactions caused by the challenging i.v. ovalbumin injection, which are manifested by oedema formation, swelling and exudation of blue dye, were evaluated 30 minutes after challenge by the i.v. ovalbumin injection. This was done by visual determination of the extent to which the blue dye emerges at the sites of oedema formation. The percentage inhibition of anaphylactic and anaphylactoid reactions caused by the test substances was determined in comparison with the reactions of the control animals not treated with test substance with the aid of comparison scales.
(§5) The results obtained by the above test methods using compounds of the formula I are shown in the following Table A. The example numbers given for the compounds of formula I relate to the following preparation examples.

[2] = tested on: Histamine-induced anaphylactoid reactions; test: Inhibition of anaphylactoid cutaneous reaction induced by histamine; type: in vivo, rat (Sprague-Dawley); conditions: Rattus norvegicus, 1 h; rats, 2 × 10^-5 mol/kg p.o., one hour before challenge; histamine intradermal
Description: as §1, §2
To determine the histamine-induced anaphylactoid skin reaction, the animals were injected intradermally in the flank opposite to the antiserum administration with 50 μl of a physiological saline solution containing 0.8 mg/ml of histamine directly before the i.v. injection of the solution containing the ovalbumin and the blue dye.
as §3, §4, §5

[3] = tested on: P.A.F.-induced aggregation of platelets from rabbit blood; test: Anti-P.A.F. effect in vitro: inhibition of P.A.F.-induced platelet aggregation; type: cell-based, rabbit (New Zealand hybrids); conditions: Oryctolagus cuniculus, Platelet, test substance concentration 10^-5 mol/l
Source text: 4. Determination of anti-P.A.F. effect in vitro.
Platelet-activating factor (P.A.F.) is a phospholipid mediator which has several effects. The activation of platelet aggregation leads to the induction of protracted broncho contractions and hyperreactivity of the airways.
The effects of the test substances on platelet aggregation induced by adding P.A.F. to a platelet suspension obtained from rabbit blood was investigated by the method described by Mikashima et al. (Jap. J. Pharmacol. 44 (1987) 387-391).
A suspension of platelets originating from rabbit blood was used which contained 4×10^9 platelets/ml in a modified Tyrode buffer solution adjusted to pH 7.4. Tyrode solution is an aqueous solution containing 136.9 mmol of NaCl, 2.68 mmol of KCl, 2.31 mmol of CaCl2, 1.0 mmol of MgCl2, 11.9 mmol of NaHCO3, 1.45 mmol of NaH2 PO4 and 5.55 mmol of glucose per liter. This solution was modified by adding 1.3 mM/l of CaCl2 and 2.5 g/l of gelatin. The platelets were obtained from 10 ml blood samples from each of three rabbits (New Zealand hybrids, body weight 3-4 kg). For this, the blood samples were treated with ethylenediaminetetraacetic acid and washed by the method of Artley et al. (Brit. J. Hamatol. 19 (1970), 7-17). A platelet-rich plasma was then initially separated by centrifugation (20 minutes at 400×g). The platelets were separated from the plasma by centrifuging again for 15 minutes at 1400×g. After centrifuging, the platelets remaining as a sediment were resuspended in a calcium-free Tyrode buffer solution. 0.4 mmol of lysine acetylsalicylate were then added and after 15 minutes the blood platelets were sedimented again. The sediment was resuspended in the abovementioned modified Tyrode buffer solution, and the number of platelets in the resulting suspension was adjusted to the desired content.
A 40×10^-9 molar P.A.F. solution was used as the reagent. This solution was prepared from a 1.8×10^-3 molar stock solution in chloroform. For this, a 10μl sample of the stock solution was evaporated to dryness and redissolved in 180 μl of the modified Tyrode solution, to which 0.25% of dilapidated bovine serum albumin had been added. 10^-5 molar working solutions were then prepared from this and stored frozen. Samples of these solutions were appropriately diluted for the tests.
To carry out the tests, 50 μl of the platelet solution and 10 μl of a 40×10^-5 molar solution of the compound to be investigated were added to 330 μl of the modified Tyrode buffer solution with stirring (1000 rpm) in an aggregation tube provided with a small magnetic stirrer. This corresponds to a final test substance concentration of 10^-5 mol/l. After a preincubation time of 90seconds, 10 μl of the P.A.F. preparation were added. The aggregation occurring in the aggregation tubes was measured for 4-5 minutes using a computerized aggregometer.
The aggregation occurring in the test tubes containing only platelet suspension was rated as 0%. The aggregation occurring in test tubes containing platelet suspension and P.A.F. preparation was rated as 100%. The aggregation which still occurred in the presence of the test substances (i.e. during inhibition of the P.A.F.-induced platelet aggregation increase) was measured, and the resulting aggregation inhibition is calculated from this in %.

histamine (H1) receptor = biological target: T1, histamine (H1) receptor (Cavia porcellus, UniProt P31389); test: Antihistamine (H1) effect: inhibition of histamine-induced contractions of isolated guinea-pig ileum in vitro; type: cell-based, guinea-pig (Dunkin Hartley); conditions: histamine 5 × 10^-6 mol/l, test substance 10^-6 mol/l
T1 construct: isolated smooth muscle of the guinea-pig ileum; from tissue; host or cells: isolated ileum segments of Dunkin Hartley guinea-pigs
T1 sequence (P31389 whole entry): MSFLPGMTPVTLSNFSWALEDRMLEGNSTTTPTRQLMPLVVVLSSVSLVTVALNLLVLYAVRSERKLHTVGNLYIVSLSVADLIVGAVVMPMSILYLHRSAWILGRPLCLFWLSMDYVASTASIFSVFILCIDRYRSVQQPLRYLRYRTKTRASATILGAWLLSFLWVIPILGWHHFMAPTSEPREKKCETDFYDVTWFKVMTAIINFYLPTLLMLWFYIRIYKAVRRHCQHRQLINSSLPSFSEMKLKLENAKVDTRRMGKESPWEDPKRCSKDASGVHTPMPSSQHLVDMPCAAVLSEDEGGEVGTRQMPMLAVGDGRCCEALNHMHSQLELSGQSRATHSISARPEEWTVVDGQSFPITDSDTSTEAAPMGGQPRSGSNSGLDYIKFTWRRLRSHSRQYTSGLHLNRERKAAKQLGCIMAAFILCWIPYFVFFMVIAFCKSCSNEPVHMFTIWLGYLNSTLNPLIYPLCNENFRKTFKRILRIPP
Description: 3. Investigation of the antihistamine (H1) effect based on histamine (H1) receptor antagonism in vitro.
To investigate the histamine (H1) receptor antagonism of the substances, the inhibitory effect thereof on histamine-induced contractions of the smooth musculature of isolated organ was determined in vitro. Isolated strips of organ from the ileum were used. In an organ bath of physiological saline solution, they react to addition of histamine by contracting. Addition of the compounds of the invention decreases this histamine-induced contraction of the smooth musculature of the ileum strips. The extent of decrease of the contraction is an indication of the antihistamine (H1) activity of the compounds. The investigation is carried out analogously to the method originally described by Magnus (Pflugers Arch. 102, 123 (1904)).
Experimental description of the determination of the inhibitory effect on the contraction induced by a 5×10^-6 molar histamine concentration on isolated smooth muscle of the guinea-pig ileum.
For the test, 1.5 cm long segments of the ileum from Dunkin Hartley guinea-pigs having a body weight of 300-500 g were employed. Each strip was placed in an organ bath of 10 ml of Krebs-Henseleit physiological saline solution and attached to a customary apparatus for isotonically measuring changes in length of the ileum strip (automated Celaster measuring apparatus) so that the tissue is under a tension of 1 g. The bath was kept at a pH of 7.4 and aerated with a mixture of 5% CO2 and 95% O2. After an equilibration phase, an isotonic contraction of the tissue was produced by adding histamine in a final concentration of 5×10^-6 mol/l and was washed out again after a contact time of 30 seconds. Only those tissues in which three reproducible contractions were obtained at 10 minute intervals were used in the subsequent test. The test substances were then added in a final concentration of 10^-6 mol/l, and after a contact time of 30 seconds histamine was again added up to a concentration of 5×10^-6 mol/l. The contractions which occurred were measured over the course of 30 seconds. The tissue was then washed several times over a period of 10 minutes. A contraction challenge was then induced again by addition of histamine. The contractions which occurred were again measured over 30 seconds. The difference between the amplitude of the contraction obtained by histamine addition alone and the amplitude of the contraction obtained in the presence of the test substance was determined and calculated as % inhibition.
The inhibitory effects on the contractions induced by histamine 30 seconds after administration of the test substance and on the contractions induced by addition of histamine 10 minutes afterward are given in the table.

inhibition at 1 µM (histamine (H1) receptor; after 30 sec., read-out: in vitro (H1) receptor antagonism % inhibitory effect on histamine-induced contractions of the Ileum, after 30 sec.) [%]	inhibition at 1 µM (histamine (H1) receptor; after 10 min. (after washing), read-out: in vitro (H1) receptor antagonism % inhibitory effect on histamine-induced contractions of the Ileum, after 10 min.) [%]	Compound	inhibition in vivo at 20 µmol/kg [1] [%]	inhibition in vivo at 20 µmol/kg [2] [%]	inhibition at 10 µM [3] [%]
–	–	Cc1ccnc(N2CCN(CCc3c(-c4ccc(Cl)cc4)n4c5c(cccc35)CCC4)CC2)c1 [Example 46]	35	25	91
24	50	Cc1cccc(N2CCN(CCc3c(C)n4c5c(cccc35)CCC4)CC2)n1 [Example 50]	60	50	–
